The results in this text go back to ChEMBL document CHEMBL3507680, “University of Dundee, Gates Library screen for HepG2 cell viability”.

A short description of this series: Human HepG2 cell viability assay in 384 well format. The format is toxicity, cell-based. Also on record: dose 125 nL, time 70.5 hour; cytotoxicity at 70.5 h: concentration not given beside the values. As to conditions: HepG2 cells, read-out: Inhibition.

In the case of `COCC(=O)N1CCC2(C1)c1ccccc1S(=O)(=O)N2C` (configuration not stated), the cytotoxicity at 70.5 h is -9.08%.

In the case of `CC(=O)N1CCC2(C1)c1ccccc1S(=O)(=O)N2C` (configuration not stated), the cytotoxicity at 70.5 h was -7.77%.

For the molecule `COCC(=O)N1CCC2(C1)c1ccccc1S(=O)(=O)N2CC1CC1` (configuration not stated), the cytotoxicity at 70.5 h is -8.07%.

For `CCCS(=O)(=O)N1Cc2nccn2CC(Cn2cncn2)C1` (configuration not stated), the cytotoxicity at 70.5 h is 20.3%. Regarding `CC(C)CS(=O)(=O)N1C[C@H]2C[C@H](C(=O)N3CCCC3)[C@@H](C1)O2`, the cytotoxicity at 70.5 h turned out to be 0.165%. Take `CC(C)CS(=O)(=O)N1C[C@H]2C[C@H](C(=O)N(C)C)[C@@H](C1)O2`: the cytotoxicity at 70.5 h is -1.1%. As for `Cc1oncc1C(=O)N1CC[C@H]2[C@@H]1CCC(=O)N2CC1CC1`, the cytotoxicity at 70.5 h is 2.95%. As for `O=C(c1ccccn1)N1CCc2ncnc(-c3ccncc3)c2CC1`, the cytotoxicity at 70.5 h is -0.573%. Take `CCS(=O)(=O)N1Cc2nccn2CC(Cn2cncn2)C1` (configuration not stated): the cytotoxicity at 70.5 h was determined as 0.16%. Turning to `O=S(=O)(C1CC1)N1CCC2(CCCN(Cc3ccccn3)C2)CC1`, the cytotoxicity at 70.5 h is -5.17%. On to `O=S(=O)(C1CC1)N1Cc2nccn2CC(Cn2cncn2)C1` (configuration not stated), for which the cytotoxicity at 70.5 h is -4.4%.

As for `CC(C)N(C)[C@@H]1CCN(S(C)(=O)=O)[C@H]1Cc1ccccc1`, the cytotoxicity at 70.5 h was -3.3%. Regarding `c1nc2c(c(N3CCOCC3)n1)CCNCC2`, the cytotoxicity at 70.5 h was -4.52%. As for `c1cncc(COCC2C[C@@H]3OCCN(Cc4cccnc4)[C@H]3C2)c1` (some centres not stated), the figure is -2.24%; as for `Cc1oncc1C(=O)N1CC[C@H]2[C@@H]1CCC(=O)N2CC1CCOCC1`, -1.77%; as for `COCCN1CCc2ncnc(N(C)C)c2CC1`, -10.9%.

As to `COCCN1CCc2ncnc(NC3CC3)c2CC1`, the cytotoxicity at 70.5 h was -2.68%.

On to `COCC1CN(c2ncccn2)Cc2cnn(CC3CC3)c21` (configuration not stated), for which the cytotoxicity at 70.5 h was -6.23%. As for `CC(C)N(C)Cc1cc(=O)n2c(n1)CN(C(=O)c1cnccn1)CCC2`, the figure is 4.66%; as for `O=C(O)c1c(-c2ccncc2)ncc2c1CCN(Cc1ccco1)C2`, 3.95%. On to `CCO[C@@H]1CC[C@H]2[C@H]1OCCN2C(=O)c1nn(C)c2ccccc12`, for which the cytotoxicity at 70.5 h is 2.67%. For the molecule `O=C(C1CC=CC1)N1CCCn2nnc(CNc3ncccn3)c2C1`, the cytotoxicity at 70.5 h was found to be 0.685%. For `CC(C)N(C)Cc1cc(=O)n2c(n1)CN(C(=O)c1ccnnc1)CCC2`, the cytotoxicity at 70.5 h was -2.81%. With `O=C(CC1CC1)N1CCCn2nnc(CNc3ncccn3)c2C1`, the cytotoxicity at 70.5 h is -1.8%. Under `CN1C(=O)C(c2cccnc2)CC12CCN(CCO)CC2` (configuration not stated) stands -0.847%; under `Cc1noc(C)c1CN1C[C@H]2CNC[C@H]2C1`, -2.52%; under `CNC(=O)COC1COC2(CCN(Cc3ccncc3F)CC2)C1` (configuration not stated), -18%. Take `Fc1cccc(CN2CCC3(CCN3c3ncccn3)C2)c1` (configuration not stated): the cytotoxicity at 70.5 h was -8.53%. As to `Cc1ccc(N2C[C@@H]3OCCN(CC4CC4)[C@@H]3C2)nn1`, the cytotoxicity at 70.5 h was -7.81%.

On to `CNC(=O)COC1COC2(CCN(Cc3cccnc3OC)CC2)C1` (configuration not stated), for which the cytotoxicity at 70.5 h was -8.67%. For the molecule `CS(=O)(=O)NC[C@H]1OC[C@@H]2CCN(CCc3ccccc3)C[C@@H]21`, the cytotoxicity at 70.5 h amounted to 17.3%.

With `O=C(c1ccno1)N1CCc2ncnc(-c3ccncc3)c2CC1`, the cytotoxicity at 70.5 h is 1.37%. With `CS(=O)(=O)NC[C@@H]1OC[C@H]2CN(Cc3ccccc3)CC[C@H]21`, the cytotoxicity at 70.5 h is -1.13%. As for `Cc1cccc(CN2CCc3onc(Cn4cccc4)c3C2)n1`, the figure is -2.56%; as for `O=S(=O)(C1CC1)N1CCO[C@@H]2CC(COCc3cccnc3)C[C@H]21` (some centres not stated), -2.81%.

In the case of `Cn1ccnc1C(=O)N1CCC2(CCN2c2ncccn2)C1` (configuration not stated), the cytotoxicity at 70.5 h came to 0.472%.

Turning to `N#Cc1cccc(CN2CC[C@@H]3CN(c4ncccn4)CCO[C@@H]3C2)c1`, the cytotoxicity at 70.5 h was found to be 21.7%. Under `CC(C)n1nc(CN2CCOCC2)c2c1CN(C(=O)c1ccno1)C2` stands -4.42%.

For `CN(C)[C@@H]1CN(C(=O)Cc2cccc(F)c2)[C@@H]2CCCO[C@H]12`, the cytotoxicity at 70.5 h is -1.9%. Under `CN(C)[C@@H]1CN(C(=O)CCc2ccccc2)[C@@H]2CCCO[C@H]12` stands -3.71%; under `CC(C)n1nc(CN2CCCCC2)c2c1CN(C(=O)c1ccno1)C2`, -8.4%. Turning to `c1cc(CN2C[C@H](OCC3CCOCC3)[C@H]3COC[C@H]32)cs1`, the cytotoxicity at 70.5 h is -7.76%. Under `O=C1CC[C@H]2[C@H](CCN2c2ncc(F)cn2)N1c1ccccc1` stands -5.86%; under `Cc1noc([C@H]2C[C@@H]3CCN(c4nnc(C)s4)C[C@H]3O2)n1`, -8.11%. Under `CCCC(=O)NC1CCc2c(ccc(=O)n2Cc2csc(C)n2)C1` (configuration not stated) stands -12.5%; under `CCc1ncnc2c1CCN(CCOC)CC2`, -9.59%.

`c1cnc(N2CCO[C@H]3[C@H](OCC4CC4)CC[C@@H]32)nc1`: the cytotoxicity at 70.5 h was -7.29%. As for `N#Cc1cccc(CN2C[C@@H]3CN(c4ncccn4)C[C@@H]3C2)c1`, the figure is -6.36%. As to `COCCN1CCc2ncnc(-c3ccccc3)c2CC1`, the cytotoxicity at 70.5 h is -5.42%. Under `CC(C)NC(=O)[C@@]12CCO[C@@H]1CCN(Cc1ccco1)C2` stands 1.53%.

With `CCOC1COC2(CCN(Cc3cccc(C)n3)CC2)C1` (configuration not stated), the cytotoxicity at 70.5 h was determined as 0.953%.

As to `CC(C)CN1C[C@H]2C[C@H](C(=O)NC3CCC3)[C@@H](C1)O2`, the cytotoxicity at 70.5 h is -1.14%. Under `Cc1noc(C)c1CN1C[C@@H]2CC(F)(F)C[C@@H]2C1` stands -2.12%; under `CN(C)C(=O)[C@@]12CCO[C@@H]1CCN(Cc1ccc3c(c1)OCO3)C2`, 1.17%; under `CCOC1COC2(CCN(c3cccc(C)n3)CC2)C1` (configuration not stated), -2.34%.

`CCN(CC)Cc1cc(=O)n2c(n1)CN(C(=O)c1ccnnc1)CCC2`: the cytotoxicity at 70.5 h was -3.81%. `Cc1noc(C)c1CN1C[C@@H]2C[C@@H](C)O[C@@H]2C1`: the cytotoxicity at 70.5 h is -3.08%. Take `CCOCC1CN(c2ccc(C)nn2)Cc2cnn(CC)c21` (configuration not stated): the cytotoxicity at 70.5 h is -5.73%.

In the case of `CCn1ncc2c1C(COCC1CC1)CN(c1ccc(C)nn1)C2` (configuration not stated), the cytotoxicity at 70.5 h is -10.4%. For the molecule `O=S(=O)(C1CC1)N1CCC2(CCCN(Cc3ccccn3)C2)C1` (configuration not stated), the cytotoxicity at 70.5 h was -0.34%. As for `Cc1ccc(CN2CCO[C@H]3[C@H](OCc4cccnc4)CC[C@@H]32)o1`, the figure is 36.8%; as for `O=C(O)c1c(-c2cncnc2)ncc2c1CCN(Cc1ccco1)C2`, 24.2%. As for `Cn1nc(CN2CCCC2)c2c1CN(CC1CC1)CC2`, the figure is 2.77%. Take `c1coc(CN2CCCn3c(CN4CCOCC4)nnc3C2)c1`: the cytotoxicity at 70.5 h turned out to be 1.6%. Take `Cc1ccc(CN2CCC3(CC2)CC(c2cccnc2)C(=O)N3C)o1` (configuration not stated): the cytotoxicity at 70.5 h is -2.25%. Under `Fc1cnc(N2CCCC3(CCN(Cc4ccsc4)C3)C2)nc1` (configuration not stated) stands 4.29%; under `CN1CCN(C[C@@H]2OC[C@H]3CN(CCc4ccccc4)CC[C@H]32)CC1`, -0.223%.
